{"source": "patent US8143025B2", "about": "“Antibodies against vascular endothelial growth factor receptor-1” (ImClone LLC, priority 2004, dated 2012)", "system": "MDA-MB-435 xenograft", "assay": "MDA-MB-435 breast tumor xenograft", "format": "in vivo, mouse", "settings": "MDA-MB-435 model, differences did not reach statistical significance", "procedure": "Athymic nude mice (Charles River Laboratories, Wilmington, Mass.) were injected subcutaneously in the left flank area with 2×10^6 of DU4475 cells or 5×10^6 of MDA-MB-231 and MDA-MB-435 cells mixed in Matrigel (Collaborative Research Biochemicals. Bedford, Mass.). In the DU4475 and MDA-MB-231 models, tumors were allowed to reach approximately 200 mm^3 in size and then mice were randomized into groups of 12-16 animals per group. Animals received i.p. administration of the anti-VEGFR-I antibody clones 6F9, 15F11, or 18F1 at a dose of 0.5 mg (MDA-MB-231) or 1 mg (DU4475) three times each week. In the MDA-MB-435 model, the tumor cells were implanted subcutaneously into mammary fat pad area in the mouse. After tumors grew to reach approximately 200 mm^3 in size, mice were randomized into groups of 15 animals per group and intraperitoneally administered with 0.5 mg per dose of 18F1 antibody three times each week. Mice in control groups received an equal volume of saline solution. Treatment of animals was continued for the duration of the experiment. Tumors were measured twice each week with calipers. Tumor volumes were calculated using the formula [π/6 (w1×w2×w2)], where “w1” represents the largest tumor diameter and “w2” represents the smallest tumor diameter. […] Tumor growth was evaluated approximately twice weekly, with tumor volume calculated as π/6* (Length*Width^2), where Length=longest diameter and Width=diameter perpendicular to Length. Tumor dimensions were measured with calipers. T/C % was calculated as 100*(Final Treatment Tumor Volume/Initial Treatment Tumor Volume)/(Final Control Tumor Volume/Initial Control Tumor Volume). […] The effect of treatment on tumor growth was analyzed using repeated measures analysis of variance (RM ANOVA), p<0.05 was considered significant. […] AU treatments were administered i.p. The effect of treatments on tumor growth were analyzed using repeated measures analysis of variance (RM ANOVA), p<0.05 was considered significant."}
{"smiles": "O=P1(N(CCCl)CCCl)NCCCO1", "note": "(stereo not shown) [cyclophosphamide, reference compound]", "values": [{"measurement": "T/C %", "value": 65, "unit": "%"}]}
